From patent US20210310069A1, “METHODS FOR DETERMINING GENE-ALPHA TOCOPHEROL INTERACTIONS” (BodySync. Inc., priority 2009, published 2021)
One block for each molecule: values may come before it.

What was measured:
[1] = Fasting plasma alpha-tocopherol by fluorimetry in healthy men supplemented with αT for six weeks; type: in vivo, human; conditions: for fasting plasma αT mean: 6-weeks
Text: (§1) Healthy middle-aged male volunteers (mean age 52.7±10 years; median years) were given dietary supplements of either […] (moderate dose), or […] (high dose) RRR-α tocopherol per day for six weeks. Subject numbers in each group were 57 and 102 respectively. All research participants gave written informed consent to take part. The study protocol was approved by the Southampton University Hospitals Trust Clinical Ethics Committee authorized the research protocol. Study participants continued with their normal diets while receiving the supplements. Subjects continued with their normal daily activities while on the study but visited the Wellcome Trust Clinical Research Facility at Southampton University Hospital Trust, after an overnight fast, at the beginning and end of the supplementation period. At the visit weight, height, and waist and hip circumference were measured, and blood samples taken for the measurement of cytokines.
(§2) Alpha-tocopherol in plasma was determined using fluorimetry according to methods described elsewhere (11). The limit of detection for αT was 7.2 pmol/L. Peripheral blood mononuclear cells (PBMCs) were prepared from heparinized whole blood samples using Leucosep sterile centrifuge tubes (Greiner Bio-one, Germany) and Histopaque gradient solution (Sigma-Aldrich Inc, MO, USA) and cultured in the presence of Lipopolysaccharide (LPS) (Sigma-Aldrich Inc, MO, USA) for 24h after which time the supernatants were removed and stored. Interleukin-6 (IL-6), tumor necrosis factor (TNF) and interleukin-1β (IL-1β) protein levels were quantitatively measured by the BD CBA Human Inflammation Kit (BD Bioscience, San Jose, Calif., USA). The operations were performed according to the manufacturer's instructions. The intensity of the fluorescence signal was acquired on a fluorescence activated cell sorter (FACS) flow cytometer (BD Becton-Dickinson), and analyzed using CBA software. The concentration range for detection using this assay is 20-5000 pg/ml for each of the proteins.

IL-1 = IL-1 (IL-1β) level of LPS-cultured PBMCs (BD CBA Human Inflammation Kit) from healthy men after 6 weeks of αT supplementation; type: in vivo; conditions: for PMBC cytokine levels IL-1 mean: 6-weeks
Text: as §1, §2
(§3) A linear regression was carried out where the outcome variable was Log(DeltaCk+minDeltaCk) Where Ck stands for IL-1, IL-6 or TNF-alpha. And DeltaCk=Followup-Baseline serum cytokine levels, and minDelta the most negative DeltaCk (<0) observed in the population baseline value, alpha tocopherol dose group, smoking status (age+BMI) were included as covariates.

IL-6 = IL-6 level of LPS-cultured PBMCs (BD CBA Human Inflammation Kit) from healthy men after 6 weeks of αT supplementation; type: in vivo; conditions: for PMBC cytokine levels IL-6 mean: 6-weeks
Text: as §1, §2, §3

TNFα = TNFα level of LPS-cultured PBMCs (BD CBA Human Inflammation Kit) from healthy men after 6 weeks of αT supplementation; type: in vivo; conditions: for PMBC cytokine levels TNFα mean: 6-weeks
Text: as §1, §2, §3

[2] = subjects who took vitamin E supplements; adjusted for age, smoking status, intake of carotene and vitamin C; cited from earlier work

fasting plasma αT mean ([1]; 75 IU/d, n = 57 healthy males): 22.6 µmol/L | fasting plasma αT mean ([1]; 600 IU/d, n = 102 healthy males): 31.3 µmol/L | change in plasma fasting levels of alpha-tocopherol ([1]; both dose groups (75 and 600 IU/d), 6 weeks): increase
Molecule: Cc1c(C)c2c(c(C)c1O)CC[C@@](C)(CCC[C@H](C)CCC[C@H](C)CCCC(C)C)O2 [αT, RRR-α tocopherol]
PMBC cytokine levels IL-1 mean (IL-1; 75 IU/d): 7.38 ng/L | PMBC cytokine levels IL-1 mean (IL-1; 600 IU/d): 6.93 ng/L | change in IL1 levels by genotype (IL-1; GG carriers at IL10-1082, 6 weeks): lower increase | change in IL-1 levels by genotype (IL-1; GG genotype at GSTP1 313, 6 weeks, not significant after FDR correction): decrease | change in serum levels of IL-1 (IL-1; both treatment groups, 6 weeks): increase | change in IL1 levels by genotype (IL-1; common genotypes at IL10-592 (CC) and IL10-819, 6 weeks): lower increase | PMBC cytokine levels IL-6 mean (IL-6; 75 IU/d): 18.71 ng/L | PMBC cytokine levels IL-6 mean (IL-6; 600 IU/d): 16.73 ng/L | change in IL-6 serum levels by genotype (IL-6; GSTP1 313 AG and GG carriers (so in the source), 6 weeks): increase | change in IL-6 levels by genotype (IL-6; SOD-28 TT versus CT and CC variants, 6 weeks, not significant after adjusting for multiple tests): lower increase | change in serum levels of IL-6 (IL-6; both treatment groups, 6 weeks): increase | change in IL-6 levels by genotype (IL-6; variant homozygotes GSTP1 313 (GG), 6 weeks, p<0.019): decreased levels | PMBC cytokine levels TNFα mean (TNFα; 75 IU/d): 1.48 ng/L | PMBC cytokine levels TNFα mean (TNFα; 600 IU/d): 1.31 ng/L | change in TNFα by genotype (TNFα; GA genotype at TNF-238, 6 weeks, p<0.016 after correcting for multiple tests): decrease | change in serum levels of TNFα (TNFα; both treatment groups, 6 weeks): increase | change in serum levels of TNFα by genotype (TNFα; genotypes AG and AA for IL10-1082 SNP and GG for TNF-238 SNP, 6 weeks): increase | increase in TNFα after supplementation (TNFα; low-dose group (75 IU/d), 6 weeks, p<0.011 after adjusting for age, baseline levels, smoking status and BMI): 40.5%

Molecule: vitamin E
reduction of major coronary heart disease [2]: 30%
